# Test results as given in patent US20050107430A1, “Antimicrobial and antiviral compounds” (priority 2003, published 2005).
# pIC50: −log10 of the molar value.
# Assays:
# [1] = system: BDF1′ mice; details: 35 mg/kg ip
# [2] = system: human fibroblasts; assay: Toxicity study with human fibroblasts; format: cell-based
# [3] = system: VRE (Vancomycin resistant Enterococci); assay: NCCLS MIC/MBC microdilution, VRE; details: for MIC, VRE enterococcus (E. faecalis): Table 3, 24 h and 48 h same results
# Description: (§2) Standard NCCLS (e.g., National Committee for Clinical Laboratory Standards) methods for determining MIC (e.g., minimum inhibitory concentration) and MBC (e.g., minimum bactericidal concentration) were used. 96 well micro-well plates were placed in a humid chamber and frozen at −70° C. [BBL Mueller Hinton Broth]. Drugs (e.g., antimicrobial compounds of the present invention) were added to a series of wells through 2 fold serial dilutions. 100 μl of a 2×10^−3 M solution of the respective Tx compounds was added to the first well in a series. 100 μl of the inoculum (e.g., microorganism) was added to the well. […] For example, the concentration in well 8 would be less than the concentration of the same drug in well 7. Inoculum (e.g., microorganism) that was added to the wells was prepared from 24 hour growth of an isolate on 5% sheep blood/Columbia agar plates. 5 to 10 representative colonies were then picked from the plates and added to saline and adjusted to 0.5 McFarland turbidity. Next the sample was diluted 1:100 in saline, such that 100 μl of the diluted sample contained approximately 1×10^5 microbes. 100 μl of the diluted sample was added to each well in a series of drug concentrations. Once the cells were added to the wells, the well plates were incubated at 35° C. without CO2 for 48 hrs and at this time the minimum bactericidal concentration was determined.
# (§3) The MIC of Tx-118, Tx-147, and Tx-197 for certain Staphylococcus aureus (MRSA), Pseudomonas aeruginosa, Stenotrophomonas maltophilia, and VRE Enterococcus faecalis was determined using standard NCCLS methods. The first well in each series of decreasing drug concentrations contained 1×10^−4 M of a drug. The drug was diluted by serial two fold dilutions through all 12 wells in a series. There was a final DMSO concentration of 2% in the first well and 1% in the second well, etc. Tests with Tx-118 and Tx-197 were performed in triplicate, and tests with Tx-147 were performed in duplicate.
# [4] = system: Enterococcus faecium; assay: NCCLS MIC/MBC microdilution, Enterococcus (vancomycin sensitive); format: cell-based; details: for MBC: read at 48 hr
# From the text: (§1) [BBL Mueller Hinton Broth].
# [5] = system: S. aureus; assay: NCCLS MIC/MBC microdilution, S. aureus patient isolates; format: cell-based, Staphylococcus aureus; details: for MBC: read at 48 hr
# From the text: as §1
# [6] = system: P. aeruginosa; assay: NCCLS MIC/MBC microdilution, P. aeruginosa; set-up: MIC: key to the marks not given beside the values; details: for MIC, P. aeruginosa: Table 3, P. aeroginosa is L13 from Table 2
# [7] = system: Mycobacterium tuberculosis; details: Table 3
# [8] = system: MRSA (oxacillin/methicillin resistant S. aureus); assay: NCCLS MIC/MBC microdilution, MRSA; details: for MBC: read at 48 hr, 10^−3 kill
# Description: as §2, §3
# [9] = system: Mycobacterium chelonae; assay: MIC, Mycobacterium chelonae; format: cell-based; details: Table 3
# [10] = system: chloroquin (CQ) resistant strain of Plasmodium falciparum (Pf); assay: In vitro efficacy against chloroquin resistant Plasmodium falciparum; format: cell-based
# Description: Tx-5 and Tx-84 were tested for in vitro efficacy against a chloroquin (CQ) resistant strain of Plasmodium falciparum (Pf). The tests were performed in triplicate at a wide variety of concentrations and evaluated for effect compared with CQ.
# [11] = system: Candida albicans; assay: MIC, Candida albicans; format: cell-based
# [12] = system: Vancomycin resistant S. aureus ATCC700699 and 700788 (VRSA); assay: NCCLS MIC/MBC microdilution, vancomycin resistant S. aureus; format: cell-based, Staphylococcus aureus; details: for MIC, VRSA (ATCC 700699) / MIC, VRSA (ATCC 700788): Table 3, 24 h and 48 h same results; for MBC: read at 48 hr
# From the text: as §1
# [13] = system: Stenotrophomonas maltophilia; assay: NCCLS MIC/MBC microdilution, S. maltophilia; details: for MBC: read at 48 hr, 10^−3 kill
# Description: as §2, §3
# [14] = system: E. coli ATCC 25922; assay: NCCLS MIC/MBC microdilution, E. coli; format: cell-based; details: plate EC
# From the text: as §1
# [15] = system: Aspergillus fumigatus; assay: MIC, Aspergillus fumigatus; format: cell-based; details: Table 3
# [16] = system: Fusarium; assay: MIC, Fusarium; format: cell-based; details: Table 3
# [17] = plate E348, Enterococcus faecium patient isolate
# [18] = plate E502, Enterococcus faecium ATCC 502806
# [19] = plate E523, Enterococcus facium patient isolate
# [20] = plate S332, S aureus patient isolate
# [21] = Table 3, 24 h and 48 h same results
# [22] = plate 699, VancoR S. aureus ATCC700699
# [23] = plate 788, VancoR S. aureus ATCC 700788
smiles,measurement,setting,value
"c1ccc2c(c1)ccc1c3ccc(NCCCCN4CCCCC4)cc3ccc21 [Tx-5, N-(2′-chrysenyl)-4-(1′-piperidinyl)-butane-1,4-diamine]","animal studies (ip), mortality",[1],mg/kg (<10% mort)
same,Toxicity/human fibroblasts (IC50),[2],6 µg/mL
same,"MIC, VRE enterococcus (E. faecalis)",[3],3 µg/mL
same,MIC,"[3]; plate D4, VRE patient isolate",3 µg/mL
same,MIC,[4]; [17],1.5 µg/mL
same,MBC,[4]; [17],3 µg/mL
same,MIC,[4]; [18],1.5 µg/mL
same,MBC,[4]; [18],6 µg/mL
same,MIC,[4]; [19],1.5/1.5 ug/ml
same,MBC,[4]; [19],1.5/1.5 ug/ml
same,MIC,[5]; [20],0.4 µg/mL
same,MBC,[5]; [20],0.7 µg/mL
same,MIC,"[5]; plate S520, S aureus patient isolate penicillin resistant",1.5/1.5 ug/ml
same,MBC,"[5]; plate S520, S aureus patient isolate",1.5/1.5 ug/ml
same,"MIC, P. aeruginosa",[6],No activity
same,MIC,"[6]; plate 37, P. aeruginosa sensitive isolate",+++
same,MIC,"[6]; plate ATCC, P. aeruginosa ATCC 27853",+++
same,MIC,"[6]; plate L13, P. aeruginosaR (multi-resistant)",+++
same,"MIC, Mycobacterium tuberculosis",[7],7 µg/mL
same,"MIC, MRSA (methicillin resistant)",[8]; [21],1.5 to 3 µg/mL
same,bactericidal activity against Staphylococcus aureus (MRSA),"[8]; in words, Example 1",bactericidal activity
same,MIC,"[8]; plate A1, MRSA patient isolate",3/3 ug/ml
same,MBC,"[8]; plate A1, MRSA",3/3 ug/ml
same,MIC,"[8]; plate B2, MRSA patient isolate",1.5 µg/mL
same,MIC,"[8]; plate E5, MRSA patient isolate",1.5 µg/mL
same,MIC,"[8]; plate F6, MRSA patient isolate",1.5/1.5 ug/ml
same,MBC,"[8]; plate F6, MRSA",1.5/1.5 ug/ml
same,MIC,"[8]; plate G7, MRSA patient isolate",1.5 µg/mL
same,MIC,"[8]; plate H9, MRSA patient isolate",3/3 ug/ml
same,MBC,"[8]; plate H9, MRSA",3/3 ug/ml
same,MIC,"[8]; plate K12, MRSA patient isolate",3 µg/mL
same,"MIC, Mycobacterium chelonae",[9],5 to 24 µg/mL
same,pIC50,"[10]; CQ resistant P. falciparum, in vitro, triplicate",3.81
same,inhibitory effect against Pf,[10]; in words,weak effect
same,inhib. of Candida albicans,[11]; @ 15 ug/ml,(90% inhib. @ 15 ug/ml)
same,"MIC, Candida albicans",[11]; Table 3,30 µg/mL
same,"MIC, VRSA (ATCC 700699)",[12],1.5 µg/mL
same,"MIC, VRSA (ATCC 700788)",[12],3.0 µg/mL
same,MIC,[12]; [22],1.5 µg/mL
same,MBC,[12]; [22],12 µg/mL
same,MIC,[12]; [23],3 µg/mL
same,MBC,[12]; [23],12 µg/mL
same,"MIC, Stenotrophomonas maltophilia",[13]; [21],24 to 48 µg/mL
same,bactericidal activity against Stenotrophomonas maltophilia,"[13]; in words, Example 1",some bactericidal activity
same,MIC,"[13]; plate C3, S. maltophilia patient isolate",48/48 ug/ml
same,MBC,"[13]; plate C3, S. maltophilia",48/48 ug/ml
same,MIC,"[13]; plate I10, S. maltophilia patient isolate",24/24 ug/ml
same,MBC,"[13]; plate I10, S. maltophilia",24/24 ug/ml
same,MIC,"[13]; plate J11, S. maltophilia patient isolate",48/48 ug/ml
same,MBC,"[13]; plate J11, S. maltophilia",48/48 ug/ml
same,MIC,[14],48/48 ug/ml
same,MBC,"[14]; read at 48 hr, 10^−3 kill",48/48 ug/ml
c1ccc2c3c(ccc2c1)-c1c(cc(NCCCCN2CCCCC2)c2ccccc12)C3 [Tx-112],"MIC, VRE enterococcus (E. faecalis)",[3],210 µg/mL
same,"MIC, Aspergillus fumigatus",[15],6.5 µg/mL
same,"MIC, P. aeruginosa",[6],No activity
same,"MIC, VRSA (ATCC 700699)",[12],8 µg/mL
same,"MIC, VRSA (ATCC 700788)",[12],8 µg/mL
same,"MIC, Fusarium",[16],3.3 µg/mL
